According to patent publication US20250376498A1, “FUSION PROTEINS COMPRISING AN IMPROVED GLP-1 RECEPTOR AGONIST AND USES THEREOF” (Guangzhou Innogen Pharmaceutical Group Co., Ltd., priority 2022, published 2025):
“Also recorded” adds a separate entry of the source.

B1: YN-011: GLP-1 fusion protein of SEQ ID NO: 7: GLP-1 (A8G, G22E, R36G), linker peptide and IgG2/Fc domain (C222S, A330S, P331S) (protein)
chain: HGEGTFTSDVSSYLEEQAAKEFIAWLVKGGGSSGAPPPSGGGGSERKSCVECPPCPAPPVAGPSVFLFPPKPKDTLMISRTPEVTCVVVDVSHEDPEVQFNWYVDGVEVHNAKTKPREEQFNSTFRVVSVLTVVHQDWLNGKEYKCKVSNKGLPSSIEKTISKTKGQPREPQVYTLPPSREEMTKNQVSLTCLVKGFYPSDIAVEWESNGQPENNYKTTPPMLDSDGSFFLYSKLTVDKSRWQQGNVFSCSVMHEALHNHYTQKSLSLSPG

Assays:
SH-SY5Y neuronal cells = test: Apoptosis in TNF-α-induced SH-SY5Y cells (Annexin V-FITC/PI flow cytometry); assay type: cell-based; conditions: 60 ng/ml TNF-α, 48 hours; YN-011 10, 100, 500 nM; GABA 1, 10, 100 μM; combination 100 μM GABA + 100 nM YN-011
Procedure: Digest the SH-SY5Y neuronal cells in a 10 cm culture dish using 0.25% trypsin to prepare a single-cell suspension. Seed the single-cell suspension into a 12-well plate. Place the culture plate in a CO2 incubator and pre-culture overnight at 37° C. with 5% CO2 to allow the cells to adhere. Using medium containing 5% FBS, treat the cells in each well with 60 ng/ml TNF-α alone or co-treated with 10, 100, or 500 nM YN-011 at 37° C. for 48 hours. Each drug treatment is performed in three replicate wells. Collect the cells and digest the cells with 0.25% trypsin without EDTA for 1 minute. Transfer the cell suspension to a 1.5 ml EP tube, centrifuge at 1000 rpm for 5 minutes, and pellet the cells at the bottom of the tube. Resuspend […] in 100 μl Binding Buffer, add 5 μl of PI and 5 μl of Annexin V-FITC solution, and incubate at room temperature in the dark for 15 minutes. Add 400 μl of Binding Buffer to each tube, and detect using a flow cytometer (Annexin V-FITC excitation wavelength: 488 nm, emission wavelength:
520 nm; PI excitation wavelength: 535 nm, emission wavelength: 617 nm). Count the number of Annexin V-FITC positive cells and PI negative cells in each sample.
Please refer to section 8.14 for the experimental procedure, but the drug treatment in this experiment is different from that in section 8.14. […]

HMC3 microglial cells = test: Inflammatory factor mRNA in HMC3 microglial cells induced by Aβ1-42 oligomers (qPCR); assay type: cell-based, human; conditions: for mRNA expression of IL-6 / mRNA expression of TNF-α: 10 μM Aβ1-42 oligomers, 48 hours, YN-011 100 nM and 500 nM; for mRNA expression of IL-6: GABA 10 μM and 100 μM (so in the source); for mRNA expression of TNF-α: GABA 100 μM, combination 100 μM GABA and 100 nM YN-011; for inflammatory cytokine mRNA expression: Aβ1-42 oligomers (figure legends)
Procedure: Under sterile conditions, dissolve the synthesized Aβ1-42 peptide (AnaSpec #AS-20276) in hexafluoroisopropanol (Mecklin #H811026) to obtain a 1 mM solution. Divide the solution into 1.5 ml sterile centrifuge tubes and evaporate the hexafluoroisopropanol in a vacuum evaporator. The dried peptide forms a film in the tubes and is stored at −20° C. for later use. Freshly prepare Aβ1-42 oligomers from the dried peptide film as follows: dissolve the dried peptide film in anhydrous DMSO to obtain a 5 mM solution, then dilute with cold cell culture basal medium to obtain a 100 µM stock solution. After incubating at 4° C. for 24 hours, use the stock solution for cell treatment.
Seed HMC3 human microglial cells into a 24-well plate. After overnight incubation at 37° C. with 5% CO2, treat the cells in each well with 10 μM Aβ1-42 oligomers alone or co-treated with 1, 10, or 100 μM GABA for 48 hours. Each drug treatment is performed in three replicate wells. After 48 hours of treatment, isolate total RNA from the cells in each well using 1 ml of Trizol (Invitrogen #15596026) following the manufacturer's instructions. Dissolve the RNA pellet in 20 μl of DEPC-treated water. Measure the RNA concentration and purity using a NanoDrop 2000. Convert RNA into cDNA using a reverse transcription kit (Yeasen #11141ES60). Prepare the PCR reaction as follows: 5 μl of PCR mix (Yeasen #10108ES03), 0.2 μl of forward primer, 0.2 μl of reverse primer, 1 μl of cDNA, and 3.6 μl of water. Perform qPCR on an Applied Biosystems 7500 real-time PCR system using the following thermal program: initial denaturation at 95° C. for 3 minutes, followed by 40 cycles of denaturation at 95° C. for 30 seconds, annealing at 60° C. for 30 seconds, and extension at 72° C. for 1 minute. Compare the relative mRNA expression of TNF-α and IL-6 between treated and untreated cells using the ΔΔCt method, normalized to the expression of the housekeeping gene RPLP0.
(§1) Please refer to section 8.17 for the experimental procedure, but the drug treatment in this experiment is different from that in section 8.17. In this experiment, the drug treatment is as follows: treat the cells in each well with 10 μM Aβ1-42 oligomers alone or co-treated with 10, 100, or 500 nM YN-011 for 48 hours. Each drug treatment is performed in three replicate wells.
as §1, with “µM” for “μM”, “100 μM GABA and/or 100” for “10, 100, or 500”

Molecule	apoptosis in TNF-α-induced neuronal cells (Annexin V-FITC positive, PI negative cells) (SH-SY5Y neuronal cells)	mRNA expression of IL-6 (HMC3 microglial cells)	mRNA expression of TNF-α (HMC3 microglial cells)	inflammatory cytokine mRNA expression (HMC3 microglial cells)
NCCCC(=O)O [GABA, γ-aminobutyric acid]	reduces apoptosis; also recorded: reduction of apoptosis	significantly reduce	significantly reduces	reduction of inflammatory cytokine mRNA expression
B1	significantly reduces apoptosis; also recorded: reduction of apoptosis	significantly reduce	significantly reduce	reduction of inflammatory cytokine mRNA expression
